# From publication doi:10.1101/2024.08.25.609621 (bioRxiv, 2024)
# pIC50, pKi: −log10 of the molar value. Read-outs that look alike come from different tables or passages of the source.
# What was measured:
# [1] = biological target: SARS-CoV-2 NSP3 macrodomain (Mac1) (Severe acute respiratory syndrome coronavirus 2, UniProt P0DTD1); assay: biochemical; type: binding
# [2] = biological target: SARS-CoV-2 NSP3 macrodomain (Mac1), P43 crystal form (Severe acute respiratory syndrome coronavirus 2, UniProt P0DTD1); type: binding; conditions: for Isomers modeled: stereoisomer(s) of ligand modeled in Mac1 crystal structure
# [3] = Single dose, concentration 200 μM, read-out: Average % competition
# [4] = preliminary screen, compound at 200 μM, mean of 3-4 technical replicates, read-out: % competition in HTRF assay
# [5] = ligand modeling in Mac1 crystal soak
# [6] = SARS CoV-2 macrodomain HTRF assay
# [7] = SARS CoV-2 macrodomain HTRF assay, dose-response, read-out: IC50
# [8] = SARS CoV-2 macrodomain HTRF assay, dose-response, read-out: Ki
# [9] = Single dose, concentration 200 μM, read-out: SARS CoV-2 macrodomain HTRF assay: Average % competition
# [10] = from SARS CoV-2 macrodomain HTRF assay
SMILES,"inhibition at 200 µM [1, 3] [%]","inhibition at 200 µM [1, 4] [%]","PanDDA run, TFA/DMSO background map: 1-BDC ([2]; crystal soak 10 mM)","PanDDA run, TFA/DMSO background map: Hit ([2]; crystal soak 10 mM)","Number of isomers bound [2, 5]",Isomers modeled [2],also measured
OCC(Cc1c[nH]c2ccccc12)Nc1ncnc2[nH]ccc12 (stereo not drawn) [AVI-3650],71,71,0.11,TRUE,2,"R,S",–
OCC(Nc1ncnc2[nH]ccc12)C1CC1 (stereo not drawn) [AVI-3651],–,–,0.16,TRUE,1,–,"Ligand efficiency (binding enery per heavy atom) [1, 6]: 0.38; pIC50 [1, 7]: 4.32; pKi [1, 8]: 4.35"
OC(c1ccccc1)C1CCCN1c1ncnc2[nH]ccc12 (stereo not drawn) [AVI-3652],–,35,0.16,TRUE,1,–,"inhibition at 200 µM [1, 9]: 35%"
CC1CCN(c2ncnc3[nH]ccc23)C1CO (stereo not drawn) [AVI-3655],–,75,0.18,TRUE,1,–,"inhibition at 200 µM [1, 9]: 75%"
CO[C@@H]1C[C@H](CO)N(c2ncnc3[nH]ccc23)C1 [AVI-3656],–,41,–,–,1,–,"inhibition at 200 µM [1, 9]: 41%"
Cn1cc(CC(CO)Nc2ncnc3[nH]ccc23)cn1 (stereo not drawn) [AVI-3657],24,24,0.09,TRUE,1,–,–
OCC(CC1OCCO1)Nc1ncnc2[nH]ccc12 (stereo not drawn) [AVI-3658],11,11,–,–,1,–,–
OCC(Nc1ncnc2[nH]ccc12)c1ccco1 (stereo not drawn) [AVI-3659],55,55,0.08,TRUE,1,–,–
OCC(CC1CCCO1)Nc1ncnc2[nH]ccc12 (stereo not drawn) [AVI-3660],18,18,0.17,TRUE,1,–,–
OC1CCN(c2ncnc3[nH]ccc23)C1 (stereo not drawn) [AVI-3661],–,11,0.12,TRUE,–,–,"inhibition at 200 µM [1, 9]: 11%; Number of isomers bound ([2]; ligand modeling in Mac1 crystal structure): 1"
OCC(CC1CC1)Nc1ncnc2[nH]ccc12 (stereo not drawn) [AVI-3662],44,44,0.09,TRUE,1,–,–
O[C@H]1CC[C@@H]2CCN(c3ncnc4[nH]ccc34)[C@@H]21 [AVI-3664],–,–,0.15,TRUE,1,SRS,"pIC50 ([1]; dose-response, read-out: SARS CoV-2 macrodomain HTRF assay: IC50): 4.55; pKi ([1]; dose-response, read-out: SARS CoV-2 macrodomain HTRF assay: Ki): 4.59; Ligand efficiency (binding enery per heavy atom) [1, 10]: 0.35"
OCC(CC1CCOC1)Nc1ncnc2[nH]ccc12 (stereo not drawn) [AVI-3665],11,11,0.15,TRUE,1,–,–
CCC(O)[C@H]1CCCN1c1ncnc2[nH]ccc12 (stereo partly drawn) [AVI-3666],–,–,–,–,1,–,"fold decrease in binding affinity compared to AVI-4062 [1]: ~ 4 fold; Ligand efficiency (binding enery per heavy atom) [1, 10]: 0.34"
CCC(Nc1ncnc2[nH]ccc12)C(C)(C)O (stereo not drawn) [AVI-3667],51,51,0.07,TRUE,1,–,–
CC(c1ccccc1)C(CO)Nc1ncnc2[nH]ccc12 (stereo not drawn) [AVI-3669],–,–,0.09,TRUE,1,–,"fold more potent / increased binding affinity than AVI-313 parent ([1]; HTRF IC50 compared with AVI-313): > 10 fold; Ligand efficiency (binding enery per heavy atom) [1, 6]: 0.33; pKi [1, 8]: 5.09; Ligand efficiency ([1]; binding energy per heavy atom): 0.33; pIC50 ([1]; read-out: HTRF IC50): 5.06"
O=C(O)C(F)(F)F.OCC1(Nc2ncnc3[nH]ccc23)CCC1 [AVI-3670],–,–,0.12,TRUE,1,"achiral,achiral","Ligand efficiency (binding enery per heavy atom) [1, 6]: 0.38; pIC50 [1, 7]: 4.41; pKi [1, 8]: 4.44"
CN(C)CC(CO)Nc1ncnc2[nH]ccc12 (stereo not drawn) [AVI-3671],< 10,< 10,0.13,TRUE,1,–,–
OCC(Cc1nccs1)Nc1ncnc2[nH]ccc12 (stereo not drawn) [AVI-3673],38,38,0.15,TRUE,1,–,–

SMILES,"inhibition at 200 µM [1, 3] [%]","inhibition at 200 µM [1, 4] [%]","PanDDA run, TFA/DMSO background map: 1-BDC ([2]; crystal soak 10 mM)","PanDDA run, TFA/DMSO background map: Hit ([2]; crystal soak 10 mM)","Number of isomers bound [2, 5]",Isomers modeled [2],also measured
Cc1ccccc1CC(CO)Nc1ncnc2[nH]ccc12 (stereo not drawn) [AVI-3674],32,–,0.15,TRUE,1,–,–
OCC(CN1CCCCC1)Nc1ncnc2[nH]ccc12 (stereo not drawn) [AVI-3677],< 10,< 10,0.18,TRUE,1,–,–
OCC(Nc1ncnc2[nH]ccc12)C1CCOC1 (stereo not drawn) [AVI-3679],35,35,0.11,TRUE,1,–,–
O=C(O)C(F)(F)F.OCC12CC(CN1c1ncnc3[nH]ccc13)C2 [AVI-3681],–,54,0.12,TRUE,1,achiral,"inhibition at 200 µM [1, 9]: 54%"
Cc1ccc(CC(CO)Nc2ncnc3[nH]ccc23)cc1 (stereo not drawn) [AVI-3683],14,14,–,–,2,"S,R",–
Cc1ccc(CC(CO)Nc2ncnc3[nH]ccc23)cc1C (stereo not drawn) [AVI-3684],< 10,< 10,–,–,2,"R,S",–
OCC1CCCN1c1ncnc2[nH]ccc12 (stereo not drawn) [AVI-3685],–,48,–,–,1,–,"fold decrease in affinity compared to AVI-607 ([1]; HTRF): > 20 fold; inhibition at 200 µM [1, 9]: 47%"
OCC(Cc1ccc(I)cc1)Nc1ncnc2[nH]ccc12 (stereo not drawn) [AVI-3686],< 10,< 10,0.19,TRUE,2,"S,R",–
O=C(O)C(F)(F)F.OCC1(Nc2ncnc3[nH]ccc23)CC1 [AVI-3688],72,72,0.17,TRUE,1,achiral,–
OCC(CC1CCCCC1)Nc1ncnc2[nH]ccc12 (stereo not drawn) [AVI-3690],66,68,–,–,1,–,–
OCC(CC1CCCC1)Nc1ncnc2[nH]ccc12 (stereo not drawn) [AVI-3691],52,53,0.1,TRUE,1,–,–
O=C(O)C(F)(F)F.OCC1(Nc2ncnc3[nH]ccc23)CCCC1 [AVI-3692],–,–,0.11,TRUE,1,achiral,"Ligand efficiency (binding enery per heavy atom) [1, 6]: 0.35; pIC50 [1, 7]: 4.31; pKi [1, 8]: 4.34"
OCC(Nc1ncnc2[nH]ccc12)C1CCc2ccccc21 (stereo not drawn) [AVI-3693],78,78,–,–,2,"RR,SR",–
CCC(CC)(CO)Nc1ncnc2[nH]ccc12 [AVI-3695],–,–,–,–,1,"achiral,achiral","Ligand efficiency (binding enery per heavy atom) [1, 6]: 0.36; pIC50 [1, 7]: 4.40; pKi [1, 8]: 4.43"
OCC(Cc1ccccn1)Nc1ncnc2[nH]ccc12 (stereo not drawn) [AVI-3696],34,34,–,–,2,"R,S",–
CCC(C)(CO)Nc1ncnc2[nH]ccc12 (stereo not drawn) [AVI-3697],–,–,–,–,1,–,"Ligand efficiency (binding enery per heavy atom) [1, 6]: 0.39; pIC50 [1, 7]: 4.44; pKi [1, 8]: 4.47"
OCC(O)C1CCCN1c1ncnc2[nH]ccc12 (stereo not drawn) [AVI-3701],–,54,–,–,1,–,"inhibition at 200 µM [1, 9]: 54%; PanDDA run, TFA/DMSO background map: 1-BDC ([2]; soak concentration 10 mM): 0.16; PanDDA run, TFA/DMSO background map: Hit ([2]; soak concentration 10 mM): TRUE"
O=C(O)C(F)(F)F.OC[C@H]1CC2(CN1c1ncnc3[nH]ccc13)OCCO2 [AVI-3702],–,17,–,–,1,–,"inhibition at 200 µM [1, 9]: 17%; PanDDA run, TFA/DMSO background map: 1-BDC ([2]; soak concentration 10 mM): 0.13; PanDDA run, TFA/DMSO background map: Hit ([2]; soak concentration 10 mM): TRUE"
OCC(Cc1cncs1)Nc1ncnc2[nH]ccc12 (stereo not drawn) [AVI-3703],28,28,–,–,1,–,"PanDDA run, TFA/DMSO background map: 1-BDC ([2]; soak concentration 10 mM): 0.1; PanDDA run, TFA/DMSO background map: Hit ([2]; soak concentration 10 mM): TRUE"
